The nature of series [1]: acute toxicity in the rat, by the oral route. The conditions noted are these: in vivo, single dose. An excerpt: The acute toxicity is expressed by the lethal dose 50, that is to say the dose resulting in the death of 50% of the animals.
This study has been carried out on groups of 10 Swiss male mice whose weight varied from 24 to 26 g, and on groups of six Wistar male rats of 120 to 125 g.
The administration was made in a single dose by the oral route in the rats and the mice, and also by the intravenous route in the case of the mice.

For series [2], the system named is acetyl salicylic acid ulcer. As to the kind of experiment: anti-ulcer activity: acetyl salicylic acid ulcer. In kind it is in vivo, rat. To be noted: 50 mg/kg oral, 1 hour before 50 mg/kg AAS oral; sacrifice 24 hours later; versus controls. As for the experimental part: (§1) The compound according to the invention was studied for its preventive properties with respect to ulcers generated by various means. Thus the ratio in the reduction of gastric attacks caused by acetyl salicylic acid and phenylbutazone was determined, as well as the ratio in the reduction of stress ulcers and SHAY ulcers, or again vasomotor reactions to polymyxine B.
(§2) For these tests, male Wistar rats were used (from 250 to 350 g according to the test). For each test and each dose, 10 animals at least were treated.
(§3) In the case of acetyl salicylic acid (AAS) and of phenylbutazone, the test procedure was as follows:
(§4) administration by the oral route of 50 mg/kg of the compound in aqueous solution with 3% of gum arabic after 23 hours fasting;
(§5) initiation of ulcerogenesis 1 hour later, by the administration of 50 mg/kg of AAS by the oral route or of 100 mg/kg of phenylbutazone by the intraperitoneal route;
(§6) sacrifice of the animals 24 hours later and examination of the gastric mucous membrane.
(§7) The control animals only received AAS or phenylbutazone.
(§8) In all the preceding tests, the results were obtained by examination of the gastric mucous membrane to determine the presence either of a congested area, or of more or less serious ulcerations.
(§9) Study of the levels of reduction of attacks in the treated animals, with respect to the controls, was effected by the method of O. FOUSSARD and G. […]

The next series concerns phenylbutazone ulcer. As to the kind of experiment: anti-ulcer activity: phenylbutazone ulcer. In kind it is in vivo, rat. The conditions noted are these: 50 mg/kg oral, 1 hour before 100 mg/kg phenylbutazone intraperitoneal; sacrifice 24 hours later; versus controls. The method, then: as §1, §2, §3, §4, §5, §6, §7, §8, §9
A further series deals with stress ulcer. As to the kind of experiment: anti-ulcer activity: stress ulcer (total immobilization). It counts as in vivo, rat. The conditions noted are these: 50 mg/kg oral, 1 hour before 18 hours immobilization; versus controls. The method, then: as §1, §2
For the stress ulcer, the rats, 1 hour after having received 50 mg/kg of the product according to the invention by the oral route, were totally immobilized for 18 hours in a cylindrical wire cage, according to the technique of ROSSI (C.R. Soc. Biol., 1956, 150, 2124-2126) and BONFILS (C.R. Soc. Biol., 1957, 151, 1149-1150). They were then sacrificed and examined.
as §8
(§10) Study of the levels of reduction of attacks in the treated animals, with respect to the controls, was effected by the method of O. FOUSSARD and G. […] (Therapie, 1972, 27, 705-721) applying the formula of J. M. LWOFF (J. Pharmacol., 1971, 2, 1, 81-83).

In another series the test system is SHAY ulcer. In words: anti-ulcer activity: SHAY ulcer (ligature of the pylorus). To be noted: 100 mg/kg oral, 1 hour before ligature of the pylorus, versus controls. In kind it is in vivo, rat. The method, then: as §1, §2
The SHAY ulcer was produced in the fasting rat after 48 hours. 47 hours after the beginning of the fast, by the oral route, 100 mg/kg of the product to be tested was administered, then, 1 hour later, ligature of the pylorus was effected after light anesthesia with ether. The sacrifice of the animals took place 12 to 24 hours after the ligature.
as §8, §10

Series [3] concerns vasomotor lesions and hemorhagia of the glandular portion of the stomach. In words: anti-ulcerogenic action against polymyxine B vasomotor lesions. It counts as in vivo, rat. To be noted: 100 mg/kg oral before 1.5 mg/kg polymyxine B intraperitoneal; sacrifice two hours later; 15 rats versus 15 controls. The method, then:
as §1, §2
In the tests with polymyxine B, 100 mg/kg of the compound according to the invention was administered by the oral route before the intraperitoneal injection of 1.5 mg/kg of polymyxine B, then, two hours later after this last injection, the rats were sacrificed. The injection of polymyxine B has the effect of causing vasomotor lesions and hemorhagia of the glandular portion of the stomach. It is by measurement of the extent of these lesions that the anti-ulcerogenic action of the compound was determined (A. BELL and Coll., Biologie et gastro-enterologie, 1969, 2, 117-126-Suppt. No. 2 aux Archives francaises des maladies de l'appareil digestif, 1969, 58, 10-11, October-November).

Molecule `CCN1CCCC1CNS(=O)(=O)c1cc(Cl)c(N)cc1OC` (stereo not shown) [(I), chloro-5 methoxy-2 amino-4 N-(N-ethyl methyl-2 pyrrolidino) benzenesulfonamide] had an LD50 in series [1] of 1500 mg/kg. The “level of reduction of attacks, acetyl salicylic acid ulcer” value in series [2] was found to be 40.0%. For the same molecule, in the series with phenylbutazone ulcer, the “level of reduction of attacks, phenylbutazone ulcer” value was 46.9%. In addition, the “level of reduction of attacks, stress ulcer” value in the series with stress ulcer is 50.8%. In addition, the “level of reduction of attacks, SHAY ulcer, after 12 hours of ligature” value with SHAY ulcer (12 hours of ligature) is 60.4%. In the series with SHAY ulcer (24 hours of ligature), the “level of reduction of attacks, SHAY ulcer, after 24 hours of ligature” value is 46.1%. Besides, the “reduction in the lesions (polymyxine B)” value in series [3] was about 63%.

The term LD50 denotes the dose expected to kill half of the subjects tested. A lower LD50 goes with greater toxicity.

For the origin of these results see patent US4225611A, “Novel n-substituted benzenesulfonamide, process for its preparation and medicaments containing it” (Choay S.A., priority 1977, dated 1980).
